Results published in publication PMC7586456 (ACS Pharmacology & Translational Science, 2020).

Test system: SARS CoV-2 (USA_WA1/2020)

| Compound | rescue of SARS-CoV-2 CPE (in words) |
| --- | --- |
| CCN1CCN(Cc2ccc(Nc3ncc(F)c(-c4cc(F)c5nc(C)n(C(C)C)c5c4)n3)nc2)CC1 [abemaciclib] | protected against SARS-CoV-2 induced CPE, but to lesser degrees than cepharanthine |
| CC1=C[C@]23C(=O)[C@@H](C=C(CO)[C@@H](O)[C@]2(O)[C@H]1O)[C@H]1[C@@H](C[C@H]3C)C1(C)C [ingenol] | protected against SARS-CoV-2 induced CPE, but to lesser degrees than cepharanthine |
| C=CC(=O)Nc1cc(Nc2nccc(-c3cn(C)c4ccccc34)n2)c(OC)cc1N(C)CCN(C)C [osimertinib] | protected against SARS-CoV-2 induced CPE, but to lesser degrees than cepharanthine |
| CC(CN(C)C)CN1c2ccccc2CCc2ccccc21 (stereo not shown) [trimipramine] | protected against SARS-CoV-2 induced CPE, but to lesser degrees than cepharanthine |
